# Measured values: patent US4138403A, “Azabicycloheptanes” (Beecham Group Limited, priority 1975, dated 1979)
# Assays:
# Assay type in all cases: biochemical
# [1] = biological target: β-lactamase Ps. dalgl. (Pseudomonas aeruginosa, UniProt P16897); test: β-lactamase inhibition, Ps. dalgl. enzyme; details: read-out: % Inhibition of - lactamases at 40 μg/ml, Ps. dalgl.
# Method: (§1) The β-lactamase inhibiting activity of certain compounds of the formula (e36) was determined by the method described in Belgian Patent No. 827,926 and the results are shown in Table 1.
# [2] = biological target: β-lactamase Staph. Russell (Staphylococcus aureus, UniProt P00807); test: β-lactamase inhibition, Staph. Russell enzyme; details: read-out: % Inhibition of - lactamases at 40 μg/ml, Staph. Russell
# Sequence of β-lactamase Staph. Russell (P00807 25-281): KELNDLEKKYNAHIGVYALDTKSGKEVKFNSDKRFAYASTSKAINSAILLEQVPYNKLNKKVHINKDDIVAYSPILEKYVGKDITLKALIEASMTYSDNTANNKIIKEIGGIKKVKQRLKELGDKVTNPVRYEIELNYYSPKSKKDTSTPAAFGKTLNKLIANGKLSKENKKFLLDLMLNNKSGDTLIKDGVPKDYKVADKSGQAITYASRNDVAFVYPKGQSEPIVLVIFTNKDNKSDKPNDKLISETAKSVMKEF
# Method: as §1
# [3] = biological target: β-lactamase E.Coli JT4 (Escherichia coli, UniProt P62593); test: β-lactamase inhibition, E.Coli JT4 enzyme; details: read-out: % Inhibition of - lactamases at 40 μg/ml, E.Coli JT4
# Sequence of β-lactamase E.Coli JT4 (P62593 24-286 limits assumed): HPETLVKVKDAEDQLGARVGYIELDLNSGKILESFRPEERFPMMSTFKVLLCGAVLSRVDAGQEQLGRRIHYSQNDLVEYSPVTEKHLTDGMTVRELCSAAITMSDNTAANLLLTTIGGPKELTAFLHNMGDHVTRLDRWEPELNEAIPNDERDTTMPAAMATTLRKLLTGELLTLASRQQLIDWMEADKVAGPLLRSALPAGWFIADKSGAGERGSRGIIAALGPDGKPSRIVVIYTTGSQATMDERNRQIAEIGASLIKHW
# Method: as §1
# [4] = system: β-lactamase Citrobac.; test: β-lactamase inhibition, Citrobac. enzyme
# Method: as §1
# [5] = system: β-lactamase Kleb. ε 70; test: β-lactamase inhibition, Kleb. ε 70 enzyme
# Method: as §1
# [6] = biological target: β-lactamase Ps. aerug. (Pseudomonas aeruginosa, UniProt P24735); test: β-lactamase inhibition, Ps. aerug. enzyme; details: read-out: % Inhibition of - lactamases at 40 μg/ml, Ps. aerug.
# Sequence of β-lactamase Ps. aerug. (P24735 27-397): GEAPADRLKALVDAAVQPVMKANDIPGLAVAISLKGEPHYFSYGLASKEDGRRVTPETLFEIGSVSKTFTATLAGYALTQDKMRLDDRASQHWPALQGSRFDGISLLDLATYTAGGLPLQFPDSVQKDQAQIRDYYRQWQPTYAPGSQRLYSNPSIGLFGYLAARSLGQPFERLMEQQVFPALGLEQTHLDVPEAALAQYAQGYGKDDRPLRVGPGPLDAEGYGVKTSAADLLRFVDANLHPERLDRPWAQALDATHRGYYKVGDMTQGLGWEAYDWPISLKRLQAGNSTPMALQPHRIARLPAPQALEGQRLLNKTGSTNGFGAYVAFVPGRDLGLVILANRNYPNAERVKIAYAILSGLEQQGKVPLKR
# Method: as §1
# [7] = system: β-lactamase Proteus C889; test: β-lactamase inhibition, Proteus C889 enzyme
# Method: as §1
# Sequence of β-lactamase Ps. dalgl. (P16897 18-288): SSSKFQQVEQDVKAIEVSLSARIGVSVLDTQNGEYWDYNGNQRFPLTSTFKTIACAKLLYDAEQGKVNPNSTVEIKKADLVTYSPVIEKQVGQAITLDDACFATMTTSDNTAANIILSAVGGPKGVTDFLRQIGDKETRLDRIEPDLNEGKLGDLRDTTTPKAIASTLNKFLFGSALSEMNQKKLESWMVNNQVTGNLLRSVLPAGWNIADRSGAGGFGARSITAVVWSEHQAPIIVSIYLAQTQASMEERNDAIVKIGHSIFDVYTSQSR
Structure (SMILES),inhibition at 40 µg/mL [1] [%],inhibition at 40 µg/mL [2] [%],inhibition at 40 µg/mL [3] [%],"% Inhibition of - lactamases at 40 μg/ml, Citrobac. [4] [%]","% Inhibition of - lactamases at 40 μg/ml, Kleb. ε 70 [5] [%]",inhibition at 40 µg/mL [6] [%],"% Inhibition of - lactamases at 40 μg/ml, Proteus C889 [7] [%]","I50 values (in parentheses), Citrobac. ([4]; value printed in parentheses) [µg/mL]"
COC(=O)[C@H]1[C@H](CCOS(=O)(=O)c2ccc(C)cc2)O[C@@H]2CC(=O)N21 (relative stereo),11,4,33,5,0,11,,
"COC(=O)[C@H]1[C@H](CBr)O[C@@H]2CC(=O)N21 (relative stereo) [CH2 Br, CO2 CH3, (2RS,3RS,5RS)]",17,12,42,,4,8,42,10.3
"COC(=O)[C@H]1[C@H](CCO)O[C@@H]2CC(=O)N21 (relative stereo) [CH2 CH2 OH, Me, (2RS,3SR,5RS)]",0,10,15,2,14,10,29,
"O=C(O)[C@H]1CO[C@@H]2CC(=O)N12 (relative stereo) [H, Na, (2RS,5RS)]",0,33,28,0,78,14,,
"O=C(OCc1ccccc1)[C@@H]1O[C@@H]2CC(=O)N2[C@H]1C(=O)OCc1ccccc1 [CO2 CH2 Ph, CO2 CH2 Ph, (2R,3R,5R), Dibenzyl (2R, 3R, 5R)-7-oxo-4-oxa-1-azabicyclo-[3.2.0]heptan-2,3-Dicarboxylate]",26,0,65,2,56,9,23,
